In brackets after ≈: the same amount, converted by molar mass.
How the values were obtained:
[1] = MRC5 toxicity assay; assay type: cell-based, human; conditions: human, MRC-5 human fetal lung fibroblast cells, MRC-5 cells, 96-h incubation, mean of triplicate; read-out: Cytotoxicity IC50 on MRC-5 cells
Experimental: The cytotoxicity of compounds was studied with human fibroblast (MRC5). Cells were grown in RPMI 1640 medium (Sigma-Aldrich, Saint-Quentin Fallavier, France) supplemented with 10% fetal bovin serum (Sigma–Aldrich). Drugs were tested at three concentrations (100, 10, and 1 µM) in triplicate. After a 96-h incubation time, cytotoxicity was measured on the Fluorolite 1000 (Dynatech, Guyancourt, France) after a 4-h incubation time with Uptiblue® (Interchim, Montluçon, France). Inhibitory concentration 50 is a mean of triplicate values. A toxicity index was determined as follow: IC50 against MRC5/Geometric mean of the MICs against Candida spp..

[2] = system: CA98002 (Candida albicans); assay: Anti-Candida in vitro assay, CA98002; assay type: cell-based; conditions: Candida albicans CA98002, mean of triplicate; read-out: MIC (IC80) CA98002
Experimental: (§1) Test fungal strains were obtained from the American Type Culture Collection (ATCC) or were clinical isolates from the Laboratory of Parasitology and Medical Mycology, Centre Hospitalier Universitaire (CHU) of Nantes. The strains were maintained on Sabouraud agar slants and were subcultured 24 h before used. The activity of the target compounds 8a–g and 11a–m was determined by the method previously described. Briefly, molecules were diluted in RPMI 1640 medium supplemented with 0.165 M morpholinopropanesulphonic acid (Sigma-Aldrich, Saint-Quentin Fallavier, France), 2% glucose, and antibiotics. Candida suspensions were prepared in RPMI 1640 medium (Sigma-Aldrich, Saint-Quentin Fallavier, France) adjusted to give a final concentration of 10^3 cells/mL, and a 96-well microplate (Nunc, D. Dutscher, Brumath, France) was seeded with 100 µL. Each concentration of molecules (100 µL) to be tested was added (in triplicate) and plates were incubated at 37 °C for 24 h. The cellular viability was evaluated on the Fluorolite 1000 (Dynatech, France) with an excitation at 550 nm and an emission at 590 nm after a 4 h incubation with 10 µL of Alamar Blue®. […] MIC was expressed as the mean of the triplicate values. KTC and FLC were used as standards.

[3] = system: CK98003 (Candida krusei); assay: Anti-Candida in vitro assay, CK98003; assay type: cell-based; conditions: Pichia kudriavzevii; Candida krusei CK98003, mean of triplicate; read-out: MIC (IC80) CK98003
Experimental: as §1

[4] = system: CK98002 (Candida krusei); assay: Anti-Candida in vitro assay, CK98002; assay type: cell-based; conditions: Pichia kudriavzevii; Candida krusei CK98002, mean of triplicate; read-out: MIC (IC80) CK98002
Experimental: as §1

[5] = system: C. albicans CA98001; assay: Anti-Candida in vitro assay (Alamar Blue), C. albicans CA98001; assay type: cell-based; conditions: for MIC: Candida albicans, CA98001, 24 h, MIC = IC80, 24 h at 37 °C, mean of triplicate
Experimental: as §1

[6] = system: ATCC6258 Candida krusei strain; assay: Anti-Candida in vitro assay, ATCC6258; assay type: cell-based; conditions: Pichia kudriavzevii; Candida krusei ATCC6258, mean of triplicate; read-out: MIC (IC80) ATCC6258
Experimental: as §1

[7] = system: ATCC2091 Candida albicans strain; assay: Anti-Candida in vitro assay, ATCC2091; assay type: cell-based; conditions: Candida albicans ATCC2091, mean of triplicate; read-out: MIC (IC80) ATCC2091
Experimental: as §1

[8] = system: CL98001 (Candida lusitaniae); assay: Anti-Candida in vitro assay, CL98001; assay type: cell-based; conditions: Clavispora lusitaniae; Candida lusitaniae CL98001, mean of triplicate; read-out: MIC (IC80) CL98001
Experimental: as §1

[9] = system: ATCC90018 Candida parapsilosis strain; assay: Anti-Candida in vitro assay, ATCC90018; assay type: cell-based; conditions: Lodderomyces parapsilosis; Candida parapsilosis ATCC90018, mean of triplicate; read-out: MIC (IC80) ATCC90018
Experimental: as §1

[10] = system: CA98005 (Candida albicans); assay: Anti-Candida in vitro assay, CA98005; assay type: cell-based; conditions: Candida albicans CA98005, mean of triplicate; read-out: MIC (IC80) CA98005
Experimental: as §1

| Compound | IC50 at 96 h [1] | MIC [2] | MIC [3] | melting point | MIC [4] | MIC [5] | MIC [6] | MIC [7] | MIC [8] | MIC [9] | MIC [10] | Times more active than FLC against C. albicans CA98001 ([5]; ratio of MIC values versus FLC) |
| --- | --- | --- | --- | --- | --- | --- | --- | --- | --- | --- | --- | --- |
| OC(Cn1ccnc1)(Cn1ccc2ccccc21)c1ccc(Cl)cc1 (stereo not drawn) [Compound 8b, 2-(4-Chlorophenyl)-1-(1H-imidazol-1-yl)-3-(1H-indol-1-yl)propan-2-ol] | 37 µM | 0.165 µg/mL (≈ 0.469 µM) | > 35.2 µg/mL | 201 to 202 °C | 2.72 µg/mL (≈ 7.74 µM) | 0.02 µg/mL (≈ 0.0568 µM) | > 35.2 µg/mL | 0.215 µg/mL (≈ 0.611 µM) | 0.222 µg/mL (≈ 0.631 µM) | 1.3 µg/mL (≈ 3.69 µM) | 0.106 µg/mL (≈ 0.301 µM) |  |
| OC(Cn1ccnn1)(Cn1ccc2ccccc21)c1ccc(Cl)cc1Cl (stereo not drawn) [Compound 11l, 2-(2,4-Dichlorophenyl)-3-(1H-indol-1-yl)-1-(1H-1,2,3-triazol-1-yl)propan-2-ol] |  |  |  | 210 to 211 °C |  | > 100 µg/mL |  |  |  |  |  |  |
| OC(Cn1ccnc1)(Cn1ccc2ccccc21)c1ccc(F)cc1F (stereo not drawn) [Compound 8d, 2-(2,4-Difluorophenyl)-1-(1H-imidazol-1-yl)-3-(1H-indol-1-yl)propan-2-ol] | 34 µM | 0.609 µg/mL (≈ 1.72 µM) | 5.21 µg/mL (≈ 14.7 µM) | 166 to 168 °C | 5.69 µg/mL (≈ 16.1 µM) | 0.00035 µg/mL (≈ 0.00099 µM) | 3.86 µg/mL (≈ 10.9 µM) | 0.726 µg/mL (≈ 2.05 µM) | 0.068 µg/mL (≈ 0.192 µM) | 0.614 µg/mL (≈ 1.74 µM) | 0.439 µg/mL (≈ 1.24 µM) | 57 |
| OC(Cn1ccnc1)(Cn1ccc2ccccc21)c1ccc(C(F)(F)F)cc1 (stereo not drawn) [Compound 11e, 1-(1H-Imidazol-1-yl)-3-(1H-indol-1-yl)-2-(4-trifluoromethylphenyl)propan-2-ol] | 36 µM | 0.32 µg/mL (≈ 0.83 µM) | 16.2 µg/mL (≈ 42.1 µM) | 246 to 247 °C | 18.3 µg/mL (≈ 47.5 µM) | 0.23 µg/mL (≈ 0.597 µM) | 22.1 µg/mL (≈ 57.4 µM) | 2.12 µg/mL (≈ 5.5 µM) | 0.173 µg/mL (≈ 0.449 µM) | 2.47 µg/mL (≈ 6.4 µM) | 0.258 µg/mL (≈ 0.669 µM) |  |
| OC(Cn1cncn1)(Cn1ccc2ccccc21)c1ccc(C(F)(F)F)cc1 (stereo not drawn) [Compound 8f, 1-(1H-Indol-1-yl)-3-(1,2,4-1H-triazol-1-yl)-2-(4-trifluoromethyl-phenyl)propan-2-ol] | 76 µM | 0.233 µg/mL (≈ 0.603 µM) | 3.07 µg/mL (≈ 7.94 µM) | 165 to 168 °C | 10.6 µg/mL (≈ 27.3 µM) | 0.009 µg/mL (≈ 0.0233 µM) | 19.1 µg/mL (≈ 49.4 µM) | 0.247 µg/mL (≈ 0.639 µM) | 0.199 µg/mL (≈ 0.515 µM) | 2 µg/mL (≈ 5.18 µM) | 0.749 µg/mL (≈ 1.94 µM) |  |
| Cc1cc2ccccc2n1CC(O)(Cn1cncn1)c1ccc(Cl)cc1Cl (stereo not drawn) [Compound 11g, 2-(2,4-Dichlorophenyl)-3-(2-methyl-1H-indol-1-yl)-1-(1H-1,2,4-triazol-1-yl)propan-2-ol] | 157 µM | 0.321 µg/mL (≈ 0.8 µM) | > 40 µg/mL | 170 to 171 °C | > 40 µg/mL | 0.0058 µg/mL (≈ 0.0145 µM) | > 40 µg/mL | 0.526 µg/mL (≈ 1.31 µM) | 0.181 µg/mL (≈ 0.451 µM) | > 40 µg/mL | 0.269 µg/mL (≈ 0.67 µM) |  |
| OC(Cn1ccnc1)(Cn1ccc2ccccc21)c1ccc(Cl)cc1Cl (stereo not drawn) [Compound 8e, 2-(2,4-Dichlorophenyl)-1-(1H-imidazol-1-yl)-3-(1H-indol-1-yl)propan-2-ol] | 31 µM | 0.251 µg/mL (≈ 0.65 µM) | 0.28 µg/mL (≈ 0.725 µM) | 212 to 213 °C | 1.8 µg/mL (≈ 4.66 µM) | 0.062 µg/mL (≈ 0.161 µM) | 1.2 µg/mL (≈ 3.11 µM) | 0.19 µg/mL (≈ 0.492 µM) | 0.116 µg/mL (≈ 0.3 µM) | 0.24 µg/mL (≈ 0.621 µM) | 0.274 µg/mL (≈ 0.709 µM) |  |
| Cc1cc2ccccc2n1CC(O)(Cn1cncn1)c1ccc(F)cc1F (stereo not drawn) [Compound 11f, 2-(2,4-Difluorophenyl)-3-(2-methyl-1H-indol-1-yl)-1-(1H-1,2,4-triazol-1-yl)propan-2-ol] | ~190 µM | 0.302 µg/mL (≈ 0.82 µM) | 5.45 µg/mL (≈ 14.8 µM) | 125 to 126 °C | 7.59 µg/mL (≈ 20.6 µM) | 0.022 µg/mL (≈ 0.0597 µM) | 17.6 µg/mL (≈ 47.7 µM) | 0.199 µg/mL (≈ 0.54 µM) | 0.232 µg/mL (≈ 0.63 µM) | 2.5 µg/mL (≈ 6.8 µM) | 0.516 µg/mL (≈ 1.4 µM) |  |
| Cc1c(C)n(CC(O)(Cn2cncn2)c2ccc(F)cc2F)c2ccccc12 (stereo not drawn) [Compound 11j, 2-(2,4-Difluorophenyl)-3-(2,3-dimethyl-1H-indol-1-yl)-1-(1H-1,2,4-triazol-1-yl)propan-2-ol] | 25 µM | 0.382 µg/mL (≈ 0.999 µM) | 13.9 µg/mL (≈ 36.4 µM) | 102 to 103 °C | 11.5 µg/mL (≈ 30 µM) | 0.157 µg/mL (≈ 0.411 µM) | 18 µg/mL (≈ 47 µM) | 0.256 µg/mL (≈ 0.669 µM) | 0.256 µg/mL (≈ 0.669 µM) | 4.01 µg/mL (≈ 10.5 µM) | 2.41 µg/mL (≈ 6.3 µM) |  |
| OC(Cn1ccnc1)(Cn1ccc2ccccc21)c1ccc(Br)cc1 (stereo not drawn) [Compound 8c, 2-(4-Bromophenyl)-1-(1H-imidazol-1-yl)-3-(1H-indol-1-yl)propan-2-ol] | 31 µM | 0.25 µg/mL (≈ 0.631 µM) | 36.6 µg/mL (≈ 92.3 µM) | 134 to 135 °C | 5.08 µg/mL (≈ 12.8 µM) | 0.02 µg/mL (≈ 0.0505 µM) | > 39.6 µg/mL | 0.357 µg/mL (≈ 0.901 µM) | 0.25 µg/mL (≈ 0.631 µM) | 1.84 µg/mL (≈ 4.64 µM) | 0.21 µg/mL (≈ 0.53 µM) |  |
| Cc1cn(CC(O)(Cn2cncn2)c2ccc(F)cc2F)c2ccccc12 (stereo not drawn) [Compound 11h, 2-(2,4-Difluorophenyl)-3-(3-methyl-1H-indol-1-yl)-1-(1H-1,2,4-triazol-1-yl)propan-2-ol] | 105 µM | 0.033 µg/mL (≈ 0.0896 µM) | 0.7 µg/mL (≈ 1.9 µM) | 112 to 113 °C | 0.81 µg/mL (≈ 2.2 µM) |  | 1.4 µg/mL (≈ 3.8 µM) | 0.136 µg/mL (≈ 0.369 µM) | 0.023 µg/mL (≈ 0.0624 µM) | 0.309 µg/mL (≈ 0.839 µM) | 0.265 µg/mL (≈ 0.719 µM) |  |
| OC(Cn1nccn1)(Cn1ccc2ccccc21)c1ccc(Cl)cc1Cl (stereo not drawn) [Compound 11m, 2-(2,4-Dichlorophenyl)-3-(1H-indol-1-yl)-1-(2H-1,2,3-triazol-2-yl)propan-2-ol] |  |  |  | 159 to 161 °C |  | > 100 µg/mL |  |  |  |  |  |  |

— publication PMC7464559, “Synthesis, Optimization, Antifungal Activity, Selectivity, and CYP51 Binding of New 2-Aryl-3-azolyl-1-indolyl-propan-2-ols” (Pharmaceuticals, 2020)
